The values below come from patent US12071407B1, “6-(4-hydroxyphenyl)-2-(2-ethoxyethoxy)-4-(4-methoxyphenyl)nicotinonitrile as an antimicrobial compound” (KING FAISAL UNIVERSITY, priority 2023, dated 2024).

One series has as its system Staphylococcus aureus. The series can be described thus: Antimicrobial screening by agar dilution. Type of series: cell-based. The note with it: after 10, 20, 40 and 60 minutes at all dilutions 1:100, 1:200, 1:400, 1:800. Here is the method: (§1) The antibacterial properties of the synthesized compound 6-(4-hydroxyphenyl)-2-(2-ethoxyethoxy)-4-(4-methoxyphenyl)nicotinonitrile were studied by the method of agar dilution. Test solutions of each compound was prepared in concentration of 1% using dimethylformamide as a solvent then they are diluted in physiological solution to obtain the final experimental dilutions 1:100, 1:200, 1:400, 1:800. The effects of these substances are compared with furacillin in a controllable study. The testing microbes used were gram positive bacteria Staphylococcus aureus, gram negative bacteria Pseudomonas aeruginosa and Escherichia coli and Candida albicans fungus. The experiments used for this survey were meat-pentonlu agar (EPA) for cultivation of bacteria and Saburo environment for the fungus. Each experiment used 1 mL of test solution on each plate […]. Two drops of emulsified with microbes feel were added. All experimental samples were taken from the agar after 10, 20, 40, 60 minutes in the environment on the basis of Patrk planted. The bacteria were cultivated at a temperature of 37° C. for 1 day and the mushroom was kept in a thermostat for […] at a temperature of 28° C. Then results were checked.

A further series deals with Candida albicans. The series is described as follows: Antimicrobial screening by agar dilution. The class given is cell-based. The conditions noted are these: after 10, 20, 40 and 60 minutes at all dilutions 1:100, 1:200, 1:400, 1:800. Here is the method: as §1
The test system of another series is Pseudomonas aeruginosa. The series can be described thus: Antimicrobial screening by agar dilution. Type of series: cell-based. The conditions noted are these: after 10, 20, 40 and 60 minutes at all dilutions 1:100, 1:200, 1:400, 1:800. Here is the method:
as §1

Another series has as its system Escherichia coli. The series can be described thus: Antimicrobial screening by agar dilution. The class given is cell-based. The conditions noted are these: after 10, 20, 40 and 60 minutes at all dilutions 1:100, 1:200, 1:400, 1:800. As for the experimental part: as §1
Background: In agar dilution the substance is mixed into plates at graded concentrations.

SMILES strings stand for the structures.

With `CCOCCOc1nc(-c2ccc(O)cc2)cc(-c2ccc(OC)cc2)c1C#N` [6-(4-hydroxyphenyl)-2-(2-ethoxyethoxy)-4-(4-methoxyphenyl)nicotinonitrile], the melting point is 209 to 211 °C. In addition, the “inhibition activity (summary in words)” value in the series on Staphylococcus aureus is on record as “highest inhibition activity”. Besides, in the series on Candida albicans, the “inhibition activity (summary in words)” value was “highest inhibition activity”. Moreover, the “inhibition activity (summary in words)” value in the series on Pseudomonas aeruginosa is recorded as “highest inhibition activity”. The “inhibition activity (summary in words)” value in the series on Escherichia coli is given as “highest inhibition activity”.

As usually defined, the melting point is the temperature of the solid-liquid transition.
